Patent US5128346A, “Derivatives of D-glutamic acid and D-aspartic acid” (priority 1990, dated 1992)
pIC50: −log10 of the molar value. Like-named read-outs stand apart in the source and are kept apart here.

What was measured:
Type-A CCK receptor = target: T1, Type-A CCK receptor (Cavia porcellus, UniProt Q63931); assay: Radioligand binding, [^125 I]-BH-CCK8, Type-A CCK receptor (pancreatic membranes); parameters: species or system guinea pig
T1 construct: cortex and pancreas were removed and rinsed with ice cold saline; from tissue; host or cells: guinea pig pancreas, membranes
T1 sequence (Q63931 1-430): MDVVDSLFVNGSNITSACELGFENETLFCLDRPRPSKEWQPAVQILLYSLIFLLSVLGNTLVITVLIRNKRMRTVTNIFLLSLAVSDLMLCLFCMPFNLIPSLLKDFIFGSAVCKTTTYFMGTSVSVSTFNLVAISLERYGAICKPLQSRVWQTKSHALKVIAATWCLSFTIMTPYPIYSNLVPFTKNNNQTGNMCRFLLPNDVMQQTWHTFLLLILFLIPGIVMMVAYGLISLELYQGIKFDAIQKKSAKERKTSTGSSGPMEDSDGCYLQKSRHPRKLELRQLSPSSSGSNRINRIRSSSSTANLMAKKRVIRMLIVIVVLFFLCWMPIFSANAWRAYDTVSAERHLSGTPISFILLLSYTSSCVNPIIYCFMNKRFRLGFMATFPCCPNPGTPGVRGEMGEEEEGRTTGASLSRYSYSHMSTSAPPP
From the text: (§1) CCK8 [Asp-Tyr(SO3 H)-Met-Gly-Trp-Met-Asp-Phe-NH2 ] was purchased from Beckman Instruments (Palo Alto, Ca/) and Peptide International (Louisville, Ky.). Chymostatin, L-Try-Gly, puromycin, bestatin, EGTA, HEPES and BSA were purchased from Sigma Chemical Co. (St. Louis, Mo.). [^125 I]BH-CCK8 (specific activity, 2200 Ci/mmol) and Aquasol 2 scintillation cocktail were obtained from New England Nuclear (Boston, Ma.). Male guinea pigs, 250 to 325 g, were obtained from Scientific Small Animal Laboratory and Farm (Arlington Heights, Ill.). Collagenase, 300 units per mg, was purchased from Worthington (Frehold, N.J.)
(§2) 1. Guinea Pig Cerebral Cortical and Pancreatic Membrane Preparations
(§3) Cortical and pancreatic membrances were prepared as described (Lin and Miller; J. Pharmacol. Exp. Ther. 232, 775-780, 1985). In brief, cortex and pancreas were removed and rinsed with ice cold saline. Visible fat and connective tissues were removed from the pancreas. Tissues were weighed and homogenized separately in approximately 25 mL of ice-cold 50 mM Tris-HCl buffer, pH 7.4 at 4° C., with a Brinkman Polytron for 30 sec, setting 7. The homogenates were centrifuged for 10 min at 1075×g and pellets were discarded. The supernatants were saved and centrifuged at 38,730×g for 20 min. The resultant pellets were rehomogenized in 25 mL of 50 mM Tris-HCl buffer with a Teflon-glass homogenizer, 5 up and down strokes. The homogenates were centrifuged again at 38,730×g for 20 min. Pellets were then resuspended in 20 mM HEPES, containing 1 mM EGTA., 118 mM NaCl, 5 mM MgCl2, 100 microM bestatin, 3 microM phosphoramidon, pH 7.4 at 22° C., with a Teflon-glass homogenizer, 15 up and down strokes. Resuspension volume for the cortex was 15-18 mL per gm of original wet weight and 60 mL per gm for the pancreas.
(§4) ^125 I]Bolton-Hunter CCK8, and test compounds were diluted with HEPES-EGTA-salt buffer (see above) containing 0.5% bovine serum albumin (BSA). To 1 mL Skatron polystyrene tubes were added 25 microliters of test compounds, 25 miroliters of [^125 I]BH-CCK8, and 200 microliters of membrane suspension. The final BSA concentration was 0.1%. The cortical tissues were incubated at 30° C. for 150 min and pancreatic tissues were incubated at 37° C. for 30 min. Incubations were terminated by filtration using Skatron Cell Harvester and SS32 microfiber filter mats. The specific binding of [^125 I]BH-CCK8, defined as the difference between binding in the absence and presence of 1 microM CCK8, was 85 90% of pancreas. IC50 's were determined from the Hill analysis.

Type-B CCK receptor = target: T2, Type-B CCK receptor (Cavia porcellus, UniProt H0VZC5); assay: Radioligand binding, [^125 I]-BH-CCK8, Type-B CCK receptor (cerebral cortical membranes); parameters: species or system guinea pig
T2 construct: cortex and pancreas were removed and rinsed with ice cold saline; from tissue; host or cells: guinea pig cerebral cortex, membranes
T2 sequence (H0VZC5 1-426): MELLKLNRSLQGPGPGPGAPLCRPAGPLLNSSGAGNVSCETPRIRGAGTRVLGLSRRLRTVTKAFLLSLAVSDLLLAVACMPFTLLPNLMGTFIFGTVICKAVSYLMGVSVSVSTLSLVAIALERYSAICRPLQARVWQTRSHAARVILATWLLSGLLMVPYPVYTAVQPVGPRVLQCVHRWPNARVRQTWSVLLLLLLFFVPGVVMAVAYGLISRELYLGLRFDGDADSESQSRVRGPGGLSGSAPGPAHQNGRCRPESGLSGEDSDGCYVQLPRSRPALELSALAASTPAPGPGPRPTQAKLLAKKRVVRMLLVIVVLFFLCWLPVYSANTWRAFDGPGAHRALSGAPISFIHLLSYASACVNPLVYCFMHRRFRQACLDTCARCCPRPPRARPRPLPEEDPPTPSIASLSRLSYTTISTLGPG
From the text: as §1, §2, §3
as §4, with “The specific binding of [^125 I]BH-CCK8, defined as the difference between binding in the absence and presence of 1 microM CCK8, was 85 90% of pancreas.” left out

[1] = guinea pig cerebral cortical membranes, 30° C., 150 min, IC50 from Hill analysis

Row | pIC50 (Type-A CCK receptor) | pIC50 (Type-B CCK receptor) | IC50, [^125 I]-BH-CCK, Type-B CCK Receptor (Type-B CCK receptor; [1]) | pIC50 (Type-A CCK receptor; guinea pig pancreatic membranes, 37° C., 30 min, IC50 from Hill analysis) | pIC50 (Type-B CCK receptor; [1]) | SMILES
1 | 6.68 | 5.18 | – | – | – | CCCCCN(CCCCC)C(=O)[C@@H](CC(=O)O)NC(=O)c1ccc2ccccc2n1 [Example 21, N-(2'-Quinolylcarbonyl)-R-Asp-N^α,N^α -di-n-pentylamide]
2 | 7.31 | – | 1-10,000 nM | – | – | COC(=O)[C@@H](NC(=O)[C@@H](CCC(=O)O)NC(=O)c1cc2ccccc2[nH]1)c1ccccc1 [Example 37, Methyl N-(2'-Indolylcarbonyl)-R-Glutamyl-S-phenylglycinate]
3 | 6.09 | 5.54 | – | – | – | CCCCCN(CCCCC)C(=O)[C@@H](CC(=O)OCc1ccccc1)NC(=O)c1cc2ccccc2[nH]1 [Example 18]
4 | 6.05 | 5.15 | – | – | – | O=C(O)CC[C@@H](NC(=O)c1cc2ccccc2[nH]1)C(=O)Nc1ccccc1-c1ccccc1 [Example 38, N-(2'-Indolylcarbonyl)-R-Glu-N^α -(2'-biphenylamide)]
5 | 7.01 | 5.18 | – | – | – | CCCCCN(CCCCC)C(=O)[C@@H](CCC(N)=O)NC(=O)c1cc2ccccc2[nH]1 [Example 22, N-(2'-Indolylcarbonyl)-R-Gln-N^α,N^α -di-n-pentylamide]
6 | 6.85 | < 5.00 | – | – | – | COC(=O)[C@@H](NC(=O)[C@@H](CCC(=O)O)NC(=O)c1ccc2ccccc2c1)c1ccccc1 [Example 89, Methyl N-(2 '-Naphthoyl)-R-Glutamyl-S-phenylglycinate]
7 | 6.96 | < 5.00 | – | – | – | CCOC(=O)CN(CC(=O)OCC)C(=O)[C@@H](CCC(=O)O)NC(=O)c1cnc2ccccc2c1 [Example 107, N-(3,-Quinolylcarbonyl)-R-Glutamyl-bis(carboethoxymethyl)amide]
8 | 7.04 | 5.25 | – | – | – | CCCCCN(CCCCC)C(=O)[C@@H](CCC(=O)O)NC(=O)C1CNc2ccccc2N1 (stereo partly drawn) [Example 13, N-(1',2',3',4'-Tetrahydroquinoxalyl-2'-carbonyl)-R-Glu-N^α,N^α -di-n-pentylamide]
9 | 7.00 | ≥ 5.00 | – | – | – | COC(=O)[C@@H](NC(=O)[C@@H](CCC(=O)O)NC(=O)c1cc(O)c2cccc(O)c2n1)c1ccccc1 [Example 93, Methyl N-(4',8'-Dihydroxyquinolyl-2-carbonyl)-R-Glutamyl-S-phenylglycinate]
10 | 7.21 | 5.38 | – | – | – | CCCCCN(CCCCC)C(=O)[C@@H](CCC(=O)O)NC(=O)c1ccc2ccccc2n1 [Example 6, N-(2,-Quinolylcarbonyl)-R-Glu-N^α,N^α -di-n-pentylamide]
11 | 7.55 | 6.21 | – | – | – | CCOC(=O)CN(Cc1ccccc1)C(=O)[C@@H](CCC(=O)OCc1ccccc1)NC(=O)c1cc(O)c2cccc(O)c2n1 [Example 84]
12 | – | – | – | 7.25 | 6.21 | CCOC(=O)CN(CC(=O)OCC)C(=O)[C@@H](CCC(=O)O)NC(=O)c1cc(O)c2cccc(O)c2n1 [Example 109, N-(4',8'-Dihydroxyquinolyl-2-carbonyl)-R-Glutamyl-bis(carboethoxymethyl)amide]
13 | 6.60 | 5.00 | – | – | – | CCOC(=O)CN(Cc1ccccc1)C(=O)[C@@H](CCC(=O)OCc1ccccc1)NC(=O)c1cnc2ccccc2c1 [Example 82, Ethyl N-(3,-Quinolylcarbonyl)-(γ-benzylester)-R-Glutamyl (N-benzyl)glycinate]
14 | 7.47 | – | 1-10,000 nM | – | – | CCCCCN(CCCCC)C(=O)[C@@H](CCC(=O)O)NC(=O)c1cc2ccccc2n1C [Example 60, N-(N^i -Methyl-2,-Indolylcarbonyl)-R-Glu-N^α,N^α -dipentylamide]
15 | 7.47 | 5.19 | – | – | – | CCCCCN(CCCCC)C(=O)[C@@H](CCC(=O)O)NC(=O)c1cnc2ccccc2n1 [Example 10, N-(2'-Quinoxalylcarbonyl)-R-Glu-N^α,N^α -di-n-pentylamide]
16 | 6.62 | 5.46 | – | – | – | CCCCCN(CCCCC)C(=O)[C@@H](CCC(=O)OCc1ccccc1)NC(=O)c1cc2ccccc2[nH]1 [Example 3, N-(2'-Indolylcarbonyl)-(γ-benzyl ester)-R-Glu-di-n-pentylamide]
17 | 6.70 | 5.20 | – | – | – | COC(=O)[C@@H](NC(=O)[C@@H](CCC(=O)OCc1ccccc1)NC(=O)c1cc2ccccc2[nH]1)c1ccccc1 [Example 36, Methyl N-(2'-Indolylcarbonyl)-(γ-benzylester)-R-Glutamyl-S-phenylglycinate]
18 | 7.00 | > 5.00 | – | – | – | CCOC(=O)CN(Cc1ccccc1)C(=O)[C@@H](CCC(=O)O)NC(=O)c1cc(O)c2cccc(O)c2n1 [Example 85, Ethyl N-(4',8'-Dihydroxyquinolyl-2-carbonyl)-R-Glutamyl (N-benzyl)glycinate]
19 | 7.17 | < 5.00 | – | – | – | COC(=O)[C@@H](NC(=O)[C@@H](CCC(=O)O)NC(=O)c1cnc2ccccc2c1)c1ccccc1 [Example 91, Methyl N-(3,-Quinolylcarbonyl)-R-Glutamyl-S-phenylglycinate]
20 | 7.36 | < 5.00 | – | – | – | CCOC(=O)CN(Cc1ccccc1)C(=O)[C@@H](CCC(=O)O)NC(=O)c1cnc2ccccc2c1 [Example 83, Ethyl N-(3'-Quinolylcarbonyl)-R-Glutamyl(N-benzyl)glycinate]
21 | 7.03 | ~5.00 | – | – | – | CCOC(=O)CN(CC(=O)OCC)C(=O)[C@@H](CCC(=O)OCc1ccccc1)NC(=O)c1cnc2ccccc2c1 [Example 106, N-(3'-Quinolylcarbonyl)-(γ-Benzyl ester)-R-Glutamyl-bis(carboethoxymethyl)amide]
22 | 6.51 | < 5.00 | – | – | – | O=C(CC[C@@H](NC(=O)c1cnc2ccccc2c1)C(=O)NCc1ccccc1)OCc1ccccc1 [Example 25, N-(3'-Quinolylcarbonyl)-(γ-benzyl ester)-R-Glu-benzylamide]
23 | 6.18 | < 5.00 | – | – | – | O=C(O)CC[C@@H](NC(=O)c1cc2ccccc2[nH]1)C(=O)NC12CC3CC(CC(C3)C1)C2 [Example 54, N-(2'-Indolylcarbonyl)-R-Glu-N^α -(1,-adamantyl)amide]
